Tests used:
[1] = biological target: ED-B domain of fibronectin (Homo sapiens, UniProt P02751); details: cited from earlier work
[2] = system: human pancreatic cancer cell line DanG; assay: Orthotopic DanG pancreatic cancer xenograft, tumor volume; assay type: in vivo, nude mice

ED-B domain of fibronectin, sequence (P02751 1271-1359 limits assumed): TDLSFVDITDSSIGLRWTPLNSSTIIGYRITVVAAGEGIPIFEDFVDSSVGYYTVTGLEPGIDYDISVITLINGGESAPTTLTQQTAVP

Row | Compound | binding affinity for ED-B [1] | mice with complete remission ([2]; gemcitabine 250 mg/kg BW days 7, 14, L19IL2 4.29 MIU/kg BW days 8-12, 15-19, or both) | pancreatic tumor volume, % compared to control mice ([2]; gemcitabine i.p. 250 mg/kg BW once weekly (day 7 and 14), day 21) [%]
1 | scFv L19: human homodimeric single chain Fv antibody fragment L19 specific for the ED-B domain of fibronectin | picomolar |  | 
2 | Nc1ccn([C@@H]2O[C@H](CO)[C@@H](O)C2(F)F)c(=O)n1 [gemcitabine, 2′-deoxy-2′,2′-difluorocytidine] |  | no complete remission | 28
